Series [1] in a line: Binding affinity to human His6-HALO-TEV DCAF15/DDB1/DDA1 complex assessed as displacement of fluorophore tagged indisulam analogue from complex measured after 1 hr by TR-FRET assay. (In TR-FRET formats the signal depends on donor and acceptor labels being close together.)
Series [2] can be described thus: Lipophilicity, logD of the compound in octanol/water at pH 7.4 by shake flask method. It counts as physicochemical.
For series [3], the target named is T1, Bromodomain-containing protein 4/DDB1- and CUL4-associated factor 15 (Homo sapiens, UniProt O60885+Q66K64). Put plainly: PROTAC activity at BRD4/DCAF15 E3 ligase (unknown origin) incubated for 16 hrs by immunoblot analysis. The series is classed as protein assay. (A western blot detects proteins with antibodies after separation by electrophoresis.)
T1 sequence (Q66K64 whole entry, looked up, other chains not shown): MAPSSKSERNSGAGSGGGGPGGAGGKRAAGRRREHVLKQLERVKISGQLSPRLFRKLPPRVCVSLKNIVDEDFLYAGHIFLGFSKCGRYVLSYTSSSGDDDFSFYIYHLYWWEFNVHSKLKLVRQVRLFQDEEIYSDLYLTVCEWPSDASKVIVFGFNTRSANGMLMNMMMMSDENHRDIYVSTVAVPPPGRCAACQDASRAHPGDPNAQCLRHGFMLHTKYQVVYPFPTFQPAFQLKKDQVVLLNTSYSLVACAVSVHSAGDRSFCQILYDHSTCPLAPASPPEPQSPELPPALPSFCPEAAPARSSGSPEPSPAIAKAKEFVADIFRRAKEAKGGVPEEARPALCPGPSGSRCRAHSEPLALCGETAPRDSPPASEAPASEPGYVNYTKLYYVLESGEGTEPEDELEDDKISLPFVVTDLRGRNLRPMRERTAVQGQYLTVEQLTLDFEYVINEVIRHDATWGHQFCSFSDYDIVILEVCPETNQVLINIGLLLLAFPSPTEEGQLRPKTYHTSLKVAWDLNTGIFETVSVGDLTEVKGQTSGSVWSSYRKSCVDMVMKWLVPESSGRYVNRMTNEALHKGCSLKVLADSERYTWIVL
Series [4] deals with T1, Bromodomain-containing protein 4/DDB1- and CUL4-associated factor 15. Put plainly: PROTAC activity at BRD4/DCAF15 E3 ligase (unknown origin) assessed as maximal degradation incubated for 16 hrs by immunoblot analysis relative to control. It counts as protein assay.
Series [5] has the same target. Put plainly: PROTAC activity at HiBiT tag-BRD4/DCAF15 E3 ligase (unknown origin) expressed in HEK293 cells assessed as maximal degradation incubated for 6 hrs by HiBit degradation assay relative to control. It counts as cell-based. Background: HiBiT is a short tag that completes a luciferase, so light tracks the accessible tagged protein.
For series [6] the target is unchanged. Description: PROTAC activity at HiBiT tag-BRD4/DCAF15 E3 ligase (unknown origin) expressed in HEK293 cells incubated for 6 hrs by HiBit degradation assay. It counts as cell-based.
Series [7] has the same target. Description: PROTAC activity at HiBiT tag-BRD4/DCAF15 E3 ligase (unknown origin) expressed in HEK293 cells in presence of MLN4924 incubated for 24 hrs by HiBit degradation assay. It counts as cell-based.
Series [8] is described as follows: Aqueous solubility of the compound in DMSO measured for 20 to 24 hrs. It counts as physicochemical. Conditions: time 20-24 hrs.
In series [9] the target is T1, Bromodomain-containing protein 4/DDB1- and CUL4-associated factor 15. Put plainly: PROTAC activity at HiBiT tag-BRD4/DCAF15 E3 ligase (unknown origin) expressed in HEK293 cells in presence of (+)-JQ1 incubated for 24 hrs by HiBit degradation assay. It counts as cell-based.
Series [10] has as its target DDB1- and CUL4-associated factor 15/RNA-binding protein 39 (Homo sapiens) (UniProt Q14498+Q66K64). Description: PROTAC activity at RBM39/DCAF15 E3 ligase (unknown origin) assessed as degradation at 0.1 to 10 uM by Western blotting analysis. It counts as cell-based. The note with it: HEK293, dose 0.1-10 µM.
Series [11] has as its system HEK293. Description: Cytotoxicity against human HEK293 cells expressing HiBiT tag-BRD4 assessed as cell viability at 10 uM measured after 24 hrs. It counts as toxicity, cell-based. Conditions: hek293, 24 h.

Activity calls are given as the source filed them. The rule behind the calls is not given here.

Chain of DDB1- and CUL4-associated factor 15/RNA-binding protein 39 (Homo sapiens) (Q14498 whole entry, looked up): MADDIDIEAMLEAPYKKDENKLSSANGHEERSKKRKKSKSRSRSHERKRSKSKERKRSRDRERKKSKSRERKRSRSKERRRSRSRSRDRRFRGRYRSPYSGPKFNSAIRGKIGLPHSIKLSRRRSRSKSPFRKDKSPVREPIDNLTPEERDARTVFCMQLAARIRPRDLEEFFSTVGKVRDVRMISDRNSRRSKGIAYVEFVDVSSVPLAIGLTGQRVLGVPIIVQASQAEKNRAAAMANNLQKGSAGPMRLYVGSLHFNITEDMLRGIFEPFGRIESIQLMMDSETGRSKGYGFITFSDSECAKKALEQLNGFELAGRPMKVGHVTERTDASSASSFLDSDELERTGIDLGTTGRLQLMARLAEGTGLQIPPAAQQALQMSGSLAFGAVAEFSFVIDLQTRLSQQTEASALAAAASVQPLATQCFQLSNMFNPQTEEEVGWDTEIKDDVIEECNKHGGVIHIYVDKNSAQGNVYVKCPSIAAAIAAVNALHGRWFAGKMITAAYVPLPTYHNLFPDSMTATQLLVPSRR
Chain of DDB1- and CUL4-associated factor 15/RNA-binding protein 39 (Homo sapiens) (Q66K64 whole entry, looked up): as the sequence (Q66K64 whole entry, looked up, other chains not shown) above

For orientation: IC50 means the concentration that gives 50% inhibition. For orientation: logD means lipophilicity at a set pH, counting ionised and neutral species. With `N#Cc1cccc(S(=O)(=O)Nc2ccc(C#N)c3c(Cl)c[nH]c23)c1`, the IC50 in series [1] stood at 4.39 µM. In series [2], the logD amounted to 1.7.
Turning to `N#Cc1cccc(S(=O)(=O)Nc2cc(Cl)cc3c(Cl)c[nH]c23)c1`, the IC50 in series [1] is 1.46 µM. Also, the logD in series [2] turned out to be 3.8.
The like results for `Cc1ccc(NS(=O)(=O)c2cccc(C#N)c2)c2[nH]cc(C#N)c12` [E-7820] were, in that order, 2.32 µM and 2.6.
The Emax is the maximal effect, on the per cent scale that the assay sets. `Cc1sc2c(c1C)C(c1ccc(Cl)cc1)=N[C@@H](CC(=O)NCCOCCOCCNC(=O)c1cccc(S(=O)(=O)Nc3ccc(C)c4c(C#N)c[nH]c34)c1)c1nnc(C)n1-2`: in series [3], the DC50 worked out at 10.8 µM. In addition, in [4], the Emax came out at 98%.
With `CNC(=O)[C@H]1CCN(C(=O)c2oc(S(=O)(=O)Nc3ccc(Cl)c4c(Cl)c[nH]c34)cc2C)C1`, in series [1], the IC50 was determined as 0.692 µM. In series [2], the logD is 2.
Take `CN(C)C(=O)c1oc(S(=O)(=O)Nc2ccc(Cl)c3c(Cl)c[nH]c23)cc1Cl`: the IC50 in series [1] worked out at 0.395 µM. The same compound returned a logD in [2] of 2.3.
In the case of `CNC(=O)c1oc(S(=O)(=O)Nc2ccc(Cl)c3c(Cl)c[nH]c23)cc1C`, the IC50 in series [1] was 0.576 µM. In addition, the logD in series [2] came out at 2.9.
For the compound `COc1ccc(NS(=O)(=O)c2cccc(C#N)c2)c2[nH]cc(C#N)c12`, the IC50 in series [1] is more than 100 µM. Also, the logD in [2] stood at 2.2.
The corresponding values for `Cc1cc(S(=O)(=O)Nc2ccc(Cl)c3c(Cl)c[nH]c23)oc1C(=O)N1CCCCC1` are 0.046 µM and 3.6.
Regarding `COCCNC(=O)c1oc(S(=O)(=O)Nc2ccc(Cl)c3c(Cl)c[nH]c23)cc1C`, in [1], the IC50 was determined as 0.505 µM. The same compound showed a logD in [2] of 2.8.
The like results for `Cc1cc(S(=O)(=O)Nc2ccc(Cl)c3c(Cl)c[nH]c23)oc1C(=O)N(C)C` were, in that order, 0.221 µM and 2.7.
In the case of `N#Cc1cccc(S(=O)(=O)Nc2ccc(Cl)c3c(Cl)c[nH]c23)c1`, the IC50 in series [1] came out at 0.709 µM. Moreover, in series [2], the logD came out at 4.
`N#Cc1cccc(S(=O)(=O)Nc2ccc(F)c3c(C#N)c[nH]c23)c1`: the 50% inhibitory concentration (IC50) in series [1] worked out at 7.01 µM. In addition, the logD in series [2] was found to be 2.
Consider `Cc1sc(S(=O)(=O)Nc2ccc(Cl)c3c(Cl)c[nH]c23)nc1C(=O)N(C)C`, for which, in series [1], the IC50 turned out to be 0.506 µM. Moreover, the logD in series [2] came to 1.5.
Turning to `Cc1sc(S(=O)(=O)Nc2ccc(Cl)c3c(Cl)c[nH]c23)cc1C(=O)N(C)C`, the IC50 in series [1] was 0.615 µM. This compound registered a logD in series [2] of 3.
Turning to `CNC(=O)[C@@H]1CCN(C(=O)c2oc(S(=O)(=O)Nc3ccc(Cl)c4c(Cl)c[nH]c34)cc2C)C1`, the IC50 in series [1] was found to be 0.279 µM. For the same compound, the logD in series [2] stood at 2.
The corresponding values for `CNC(=O)C1CN(C(=O)c2oc(S(=O)(=O)Nc3ccc(Cl)c4c(Cl)c[nH]c34)cc2C)C1` are 0.979 µM and 1.9.
On to `CN(C)C(=O)c1nc(S(=O)(=O)Nc2ccc(Cl)c3c(Cl)c[nH]c23)cn1C`, for which the IC50 in series [1] is 0.842 µM. The logD in series [2] stood at 2.2.
The corresponding values for `N#Cc1cccc(S(=O)(=O)Nc2ccc(Cl)c3c(C#N)c[nH]c23)c1` are 1.55 µM and 2.4.
What is called solubility is the dissolved amount per volume that the medium holds. Regarding `Cc1cc(S(=O)(=O)Nc2ccc(Cl)c3c(Cl)c[nH]c23)oc1C(=O)N1CCC(C(=O)N2CCN(CC3CCN(C(=O)C[C@@H]4N=C(c5ccc(Cl)cc5)c5c(sc(C)c5C)-n5c(C)nnc54)CC3)CC2)CC1`, the Emax in series [5] was 69%. In [6], this compound yielded a DC50 of 0.453 µM. Besides, the IC50 in [1] was 0.074 µM. Further, the logD in [2] is more than 4. Also, the result in series [7] was inactive. This compound registered a solubility in [8] of less than 0.16 µM.
Regarding `Cc1cc(S(=O)(=O)Nc2ccc(Cl)c3c(Cl)c[nH]c23)sc1C(=O)N(C)C`, in [1], the IC50 stood at 0.224 µM. For the same compound, the logD in series [2] turned out to be 3.1.
As to `CN(C)C(=O)c1ccc(S(=O)(=O)Nc2ccc(Cl)c3c(Cl)c[nH]c23)o1`, the IC50 in series [1] came out at 0.675 µM. Also, in series [2], the logD was determined as 2.3.
Consider `Cc1cc(S(=O)(=O)Nc2ccc(Cl)c3c(Cl)c[nH]c23)oc1C(=O)N1CCN(C)CC1`, for which the IC50 in series [1] was determined as 0.393 µM. Also, the logD in series [2] turned out to be 2.2.
In the case of `CNC(=O)C1CCN(C(=O)c2oc(S(=O)(=O)Nc3ccc(Cl)c4c(Cl)c[nH]c34)cc2C)CC1`, in [9], the outcome was Active. The outcome in series [10] was inactive. Besides, the IC50 in [1] is 0.053 µM. Also, the Activity result in series [11] is listed as “Toxic”. The compound also returned a logD in series [2] of 2.1.
Turning to `Cc1coc(S(=O)(=O)Nc2ccc(Cl)c3c(Cl)c[nH]c23)c1`, in series [1], the IC50 was 1.18 µM. In series [2], this compound yielded a logD of 3.7.
